Measurements published in patent EP2796135A1, “Use of trifluoroacetic acid and salts thereof to treat hypercholesterolemia” (POLICHEM S.A., priority 2013, dated 2014).
Where a name gives a salt, the structure may show the parent alone.

What was measured:
total cholesterol [1] = test: intravenous study in dogs, daily administration for 4 weeks (Example 15); assay type: in vivo, Beagle dogs; conditions: for reduction in total cholesterol: intravenous, end of the 4 weeks of treatment
Experimental: An intravenous study of the Calcium salt of trifluoroacetic acid was performed in Beagle dogs after daily administration for 4 weeks.
Dogs (4 animals/sex/group) were treated by intravenous slow injection (2.5 mL/min) with 50, 100 and 200 mg/kg for 4 consecutive weeks.
(§1) The intravenous solutions were prepared as for Example 9.

[2] = preliminary oral study with ascending dose levels in minipigs (Example 13); assay type: in vivo, Göttingen minipig; conditions: in vivo, minipig, read-out: maximum tolerated dose
Experimental: (§2) A preliminary oral study of the Calcium salt of trifluoroacetic acid was performed in minipigs. One male and one female Göttingen minipig were daily treated by oral route with ascending dose levels of Calcium salt of trifluoroacetic acid, as indicated below.
(§3) The oral solutions were prepared as for Example 1.

total cholesterol [3] = test: as above; assay type: in vivo, Göttingen minipig; conditions: for decrease of total cholesterol: male
Experimental: as §2, §3

total cholesterol [4] = test: preliminary intravenous study in dogs, daily administration for 14 days (Example 14); assay type: in vivo, Beagle dogs; conditions: for reduction in total cholesterol: end of the 14 days of treatment
Experimental: A preliminary intravenous study of the Calcium salt of trifluoroacetic acid was performed in Beagle dogs after daily administration.
Dogs (2 animals/sex/group) were treated by intravenous slow injection (2.5 mL/min) with 100 and 200 mg/kg for 14 consecutive days.
as §1

[5] = ascending doses 50-1000 mg/kg/day
[6] = intravenous, 100 and 200 mg/kg, 14 consecutive days

O=C(O)C(F)(F)F [Calcium salt of trifluoroacetic acid, Calcium trifluoroacetate]
changes in body weight, food consumption and water consumption, hematological, chemical chemistry, fecal and urinalysis parameters (total cholesterol [1]; both sexes, intravenous, 50, 100 and 200 mg/kg, 4 weeks): No changes of toxicological relevance
reduction in total cholesterol (total cholesterol [1]; females, 50 mg/kg/day): 20%
reduction in total cholesterol (total cholesterol [1]; females, 100 mg/kg/day): 29%
reduction in total cholesterol (total cholesterol [1]; females, 200 mg/kg/day): 24%
deaths (total cholesterol [1]; intravenous slow injection, 50, 100 and 200 mg/kg, 4 consecutive weeks): No deaths occurred
organ weights (total cholesterol [1]; intravenous, 50, 100 and 200 mg/kg, 4 weeks): unaffected
findings at the site of injection and electrographic alterations (total cholesterol [1]; intravenous, 50, 100 and 200 mg/kg, 4 weeks, findings at the site of injection minimal to moderate): dose dependent and reversible
reduction in total cholesterol (total cholesterol [1]; males, 50 mg/kg/day): 9%
reduction in total cholesterol (total cholesterol [1]; males, 100 mg/kg/day): 21%
reduction in total cholesterol (total cholesterol [1]; males, 200 mg/kg/day): 15%
MTD [2]: ≥ 1000 mg/kg
changes in body weight, food consumption and water consumption (total cholesterol [3]; [5]): No changes of toxicological relevance
changes in hematology (total cholesterol [3]; [5]): No changes of note
mortality (total cholesterol [3]; ascending doses 50-1000 mg/kg/day, one male and one female minipig): No mortality occurred
decrease of total cholesterol (total cholesterol [3]; 150 mg/kg/day): 18%
decrease of total cholesterol (total cholesterol [3]; 200 mg/kg/day): 33%
decrease of total cholesterol (total cholesterol [3]; 300 mg/kg/day): 44%
decrease of total cholesterol (total cholesterol [3]; 600 mg/kg/day): 49%
decrease of total cholesterol (total cholesterol [3]; 1000 mg/kg/day): 56%
reduction in total cholesterol (total cholesterol [4]; females, intravenous, 100 mg/kg/day): 29%
reduction in total cholesterol (total cholesterol [4]; females, intravenous, 200 mg/kg/day): 16%
deaths (total cholesterol [4]; intravenous slow injection, 100 and 200 mg/kg, 14 consecutive days): No deaths occurred
differences in body weight, food consumption, physical examination and chemical chemistry, coagulation, organ weight (total cholesterol [4]; [6]): No significant differences
findings recorded in the study (total cholesterol [4]; [6]): limited to the site of injection
reduction in total cholesterol (total cholesterol [4]; males, intravenous, 100 mg/kg/day): 18%
reduction in total cholesterol (total cholesterol [4]; males, intravenous, 200 mg/kg/day): 21%
